From publication PMC7245562 (Cell chemical biology, 2020)
≈ marks a conversion by molar mass, not a printed value. Blank lines part the entries; values can stand above or below the compound they belong to.

Key:
ecDHFR.YFP = ecDHFR.YFP (Escherichia coli, UniProt P0ABQ4, G67S/R12Y/Y100I); type: cell-based; conditions: for "Off" kinetics compared with TMP: 1 and 10 μM; for stabilization of ecDHFR after washout: 48 h post washout
[1] = test system: BW25113 wild-type E. coli; test: Bacterial growth assay, Gram-negative E. coli; conditions: Escherichia coli, BW25113, read-out: minimal inhibitory concentration [MIC]
[2] = biological target: T1, R12Y/G67S/Y100I ecDHFR fused to yellow fluorescent protein (ecDHFR.YFP) (Escherichia coli, UniProt P0ABQ4, G67S/R12Y/Y100I); type: cell-based; conditions: for dose-dependent stabilization of ecDHFR.YFP: dose-response, 24 h; for stabilization of ecDHFR.YFP: 10 μM final concentration, 24 h treatment
recombinant hsDHFR = biological target: T2, recombinant hsDHFR (Homo sapiens, UniProt P00374); test: Human DHFR; type: biochemical; conditions: 1 μM compound
T2 sequence (P00374 1-187): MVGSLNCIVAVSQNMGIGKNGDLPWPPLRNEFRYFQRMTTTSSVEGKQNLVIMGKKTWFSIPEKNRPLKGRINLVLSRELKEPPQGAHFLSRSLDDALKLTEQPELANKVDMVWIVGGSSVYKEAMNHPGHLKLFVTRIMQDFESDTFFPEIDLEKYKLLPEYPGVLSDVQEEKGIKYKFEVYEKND

[3] = biological target: T3, ecDHFR DD firefly luciferase (ecDHFR.FLuc) (Escherichia coli, UniProt P0ABQ4, G67S/R12Y/Y100I); type: in vivo, BALB/c mice; conditions: 1 mg (50 mg/kg) oral gavage, 6 h, mean ± SEM
[4] = biological target: T3, ecDHFR DD firefly luciferase (ecDHFR.FLuc); type: in vivo, BALB/c mice; conditions: 1 mg (50 mg/kg) oral gavage, 6 h, mean ± SEM; remark: listed apart in the source
[5] = biological target: R12Y/M16L/G67S/Y100I ecDHFR.YFP (Escherichia coli, UniProt P0ABQ4, G67S/M16L/R12Y/Y100I); type: cell-based; conditions: 24 h, vs control ecDHFR DD
[6] = biological target: I5F/R12Y/G67S/Y100I ecDHFR.YFP (Escherichia coli, UniProt P0ABQ4, G67S/I5F/R12Y/Y100I); type: cell-based; conditions: 24 h, vs control ecDHFR DD
[7] = biological target: R12Y/F31L/G67S/Y100I ecDHFR.YFP (Escherichia coli, UniProt P0ABQ4, F31L/G67S/R12Y/Y100I); type: cell-based; conditions: 24 h, vs control ecDHFR DD
[8] = biological target: R12Y/G67S/I94L/Y100I ecDHFR.YFP (Escherichia coli, UniProt P0ABQ4, G67S/I94L/R12Y/Y100I); type: cell-based; conditions: 24 h, vs control ecDHFR DD
[9] = biological target: T1, R12Y/G67S/Y100I ecDHFR fused to yellow fluorescent protein (ecDHFR.YFP); type: cell-based; conditions: 5 μM, 24 h
RN4220 S. aureus = test: Bacterial growth assay, Gram-positive S. aureus; type: cell-based; conditions: concentrations up to 50 μM
Iba1(+) microglia = test: Iba1; type: in vivo, BALB/c mice; conditions: 1 mg per day for 7 days, oral gavage

Compound: COc1ccc(Cc2cnc(N)nc2N)cc1OC [diaveridine]
- "Off" kinetics compared with TMP (ecDHFR.YFP): noticeably quicker
- MIC [1]: ~16.6 µM (≈ 4.32 µg/mL)

Compound: C#CCC(Cc1cnc2nc(N)nc(N)c2n1)c1ccc(C(=O)N[C@@H](CCC(=O)O)C(=O)O)cc1 (stereo partly shown) [Pralatrexate]
- stabilization of ecDHFR after washout (ecDHFR.YFP): continued to stabilize ecDHFR
- time of peak ecDHFR.YFP fluorescence (ecDHFR.YFP; all concentrations used (0.1, 1, 10 μM)): 48 h
- dose-dependent stabilization of ecDHFR.YFP [2]: readily stabilized
- inhibition of hsDHFR activity (recombinant hsDHFR): completely inhibited
- fold change in luminescence after treatment, eye [3]: 3.5 ± 0.7 fold
- fold change in bioluminescent signal, liver [4]: 7.1 ± 1.3 fold

Compound: Nc1nc2ccccc2c(=O)[nH]1 [2-AQ-4O, 2-amino-3H-quinazolin-4-one]
- stabilization of ecDHFR.YFP [2]: did not allow for stabilization

Compound: Nc1ncc(C=O)c(N)n1 [2,4-DAP-5C, 2,4-diaminopyrimidine-5-carbaldehyde]
- stabilization of ecDHFR.YFP [2]: insufficient to stabilize

Compound: Nc1nc(N)c2ccccc2n1 [2,4-DAQ, 2,4-diaminoquinazoline]
- effect of Met16 (M16L) mutation on stabilization [5]: did not significantly disrupt
- responsiveness to stabilization, Ile5 (I5F) mutant [6]: eliminated all responsiveness
- responsiveness to stabilization, Phe31 (F31L) mutant [7]: eliminated all responsiveness
- responsiveness to stabilization, Ile94 (I94L) mutant [8]: eliminated all responsiveness
- fold change in luminescence after treatment, eye [3]: 1.6 ± 0.3 fold
- fold change in bioluminescent signal, liver [4]: 5.3 ± 2.1 fold

Compound: COc1cc(C)c(Cc2cnc(N)nc2N)cc1OC [ormetoprim]
- "Off" kinetics, time after removal (ecDHFR.YFP; 0.1 μM): 2 to 4 h
- "Off" kinetics compared with TMP (ecDHFR.YFP): noticeably quicker
- MIC [1]: ~16.6 µM (≈ 4.55 µg/mL)

Compound: Nc1nc(N)c2nc(CNc3ccc(C(=O)N[C@@H](CCC(=O)O)C(=O)O)cc3)cnc2n1 [aminopterin]
- stabilization of ecDHFR after washout (ecDHFR.YFP): continued to stabilize ecDHFR
- dose-dependent stabilization of ecDHFR.YFP [2]: readily stabilized
- inhibition of hsDHFR activity (recombinant hsDHFR): completely inhibited

Compound: Cc1nc2ccc(CN(C)c3ccc(C(=O)N[C@@H](CCC(=O)O)C(=O)O)s3)cc2c(=O)[nH]1 [raltitrexed]
- stabilization of ecDHFR.YFP [2]: did not allow for stabilization

Compound: Nc1nc(N)c2nc(-c3ccccc3)c(N)nc2n1 [Triamterene]
- inhibition of hsDHFR activity (recombinant hsDHFR): intermediately inhibited
- fold change in luminescence after treatment, eye [3]: 3.1 ± 0.6 fold
- fold change in bioluminescent signal, liver [4]: 1.9 ± 0.2 fold

Compound: Nc1nc2[nH]cc(CCc3ccc(C(=O)N[C@@H](CCC(=O)O)C(=O)O)cc3)c2c(=O)[nH]1 [pemetrexed]
- stabilization of ecDHFR.YFP [2]: did not allow for stabilization

Compound: Cc1cc(/C=C/c2ccc3cc(N(C)C)ccc3[n+]2C)c(C)n1-c1ccccc1 [pyrvinium pamoate]
- hit follow-up in ARPE-19 cells lacking ecDHFR.YFP [9]: fluorescent false positives

- inhibition of hsDHFR activity (recombinant hsDHFR): intermediately inhibited
Compound: CC1(C)N=C(N)N=C(N)N1OCCCOc1cc(Cl)c(Cl)cc1Cl [WR99210]

Compound: Nc1nc(N)c2nc(-c3cccc(Cl)c3)c(N)nc2n1 [Epiblastin A]
- S. aureus growth inhibition (RN4220 S. aureus): did not completely inhibit growth
- inhibition of hsDHFR activity (recombinant hsDHFR): intermediately inhibited

Compound: [H]/N=C(\N/C(=N/[H])Nc1ccc(Cl)cc1)NC(C)C [proguanil]
- stabilization of ecDHFR.YFP [2]: no stabilization capabilities

Compound: COc1ccc(COc2ccc(Cc3cnc(N)nc3N)cc2OC)cc1 [GW2580]
- MIC (RN4220 S. aureus; LB broth, endpoint 19-24 h): ~ 50 μM
- reduction of Iba1(+) microglia, inner retina (Iba1(+) microglia): 33%
- reduction of Iba1(+) microglia, outer retina (Iba1(+) microglia): 32%
- fold change in luminescence after treatment, eye [3]: 8.6 ± 1.7 fold

Compound: Nc1ccnc(N)n1 [2,4-DAP, 2,4-diaminopyrimidine]
- stabilization of ecDHFR.YFP [2]: insufficient to stabilize
